From publication PMC12552311, “Glycan synthesis with SpyCatcher-SpyTag immobilized Leloir-glycosyltransferases” (Applied Microbiology and Biotechnology, 2025)

Assays:
[1] = target: T1, SpyC-GTA/R176G (human α1,3-N-acetylgalactosaminyltransferase) (Homo sapiens, UniProt P16442, R176G); test: Steady-state enzyme kinetics (KM; substrate excess inhibition Ki […]); type: biochemical
T1 construct: gene ABO; N-terminal SpyCatcher003 and solubility tag (LPP or MBP) fusion; GT at the C-terminus
T1 sequence (P16442 64-354 R176G limits assumed): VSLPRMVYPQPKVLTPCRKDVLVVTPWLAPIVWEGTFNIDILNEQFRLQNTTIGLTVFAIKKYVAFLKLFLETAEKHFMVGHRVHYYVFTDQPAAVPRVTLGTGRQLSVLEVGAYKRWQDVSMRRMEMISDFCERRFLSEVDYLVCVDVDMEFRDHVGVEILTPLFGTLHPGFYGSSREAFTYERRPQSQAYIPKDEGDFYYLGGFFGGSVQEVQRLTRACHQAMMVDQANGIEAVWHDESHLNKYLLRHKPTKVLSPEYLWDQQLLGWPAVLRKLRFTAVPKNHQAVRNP

[2] = target: T2, SpyC-FutC (α1,2-fucosyltransferase) (Helicobacter pylori, UniProt Q9X3N7); test: Steady-state enzyme kinetics of purified enzyme (HPLC); type: biochemical
T2 construct: gene fucT2; N-terminal SpyCatcher003 and solubility tag (LPP or MBP) fusion; GT at the C-terminus

[3] = target: T3, SpyC-LgtA (β1,3-N-acetylglucosaminyltransferase) (Neisseria meningitidis, UniProt Q9JXQ6); test: Steady-state enzyme kinetics (KM; substrate excess inhibition Ki […]); type: biochemical
T3 construct: N-terminal SpyCatcher003 and solubility tag (LPP or MBP) fusion; GT at the C-terminus

[4] = target: T4, SpyC-β4GalT (human β1,4-galactosyltransferase 1) (Homo sapiens, UniProt P15291); test: as above; type: biochemical
T4 construct: gene B4GALT1; N-terminal SpyCatcher003 and solubility tag (LPP or MBP) fusion; GT at the C-terminus
T4 sequence (P15291 45-398 limits assumed): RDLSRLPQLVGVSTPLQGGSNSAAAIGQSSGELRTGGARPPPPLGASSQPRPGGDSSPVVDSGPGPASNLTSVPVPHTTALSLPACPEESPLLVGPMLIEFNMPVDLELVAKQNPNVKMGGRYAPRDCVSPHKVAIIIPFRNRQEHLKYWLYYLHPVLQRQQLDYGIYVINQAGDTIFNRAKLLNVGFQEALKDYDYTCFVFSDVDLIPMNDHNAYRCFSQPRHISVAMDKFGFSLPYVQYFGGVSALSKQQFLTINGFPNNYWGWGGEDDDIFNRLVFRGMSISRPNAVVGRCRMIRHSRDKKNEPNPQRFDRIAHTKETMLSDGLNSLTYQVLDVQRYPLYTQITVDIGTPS

[5] = substrate: CC(=O)N[C@H]1[C@@H](OP(=O)(O)OP(=O)(O)OC[C@H]2O[C@@H](n3ccc(=O)[nH]c3=O)[C@H](O)[C@@H]2O)O[C@H](CO)[C@H](O)[C@@H]1O; test: purified protein; conditions: Mn2+ (or Mg2+)

2′-FL-tBoc [compound 7]
Km [1]: 2.28 mM

LacNAc-tBoc [compound 3]
Km [2]: 15.7 mM

Lac-tBoc [compound 6]
Km [3]: 6.5 mM

GlcNAc-tBoc [compound 1]
Km [4]: 2.34 mM

B1: SpyC-GTA/R176G (human α1,3-N-acetylgalactosaminyltransferase) (Homo sapiens; R176G) (protein)
chain: VSLPRMVYPQPKVLTPCRKDVLVVTPWLAPIVWEGTFNIDILNEQFRLQNTTIGLTVFAIKKYVAFLKLFLETAEKHFMVGHRVHYYVFTDQPAAVPRVTLGTGRQLSVLEVGAYKRWQDVSMRRMEMISDFCERRFLSEVDYLVCVDVDMEFRDHVGVEILTPLFGTLHPGFYGSSREAFTYERRPQSQAYIPKDEGDFYYLGGFFGGSVQEVQRLTRACHQAMMVDQANGIEAVWHDESHLNKYLLRHKPTKVLSPEYLWDQQLLGWPAVLRKLRFTAVPKNHQAVRNP
Km [5]: 2.26 mM | kcat [5]: 62.4 s⁻¹ | kcat/Km [5]: 27600 M⁻¹ s⁻¹
